This passage reports ED50 results from US4551460A, “Pyrido[2,1-b]quinazoline derivatives useful as agents for treatment of allergic conditions and vascular disorders involving thrombosis” (priority 1983, dated 1985).

The assay has as its system PAF induced mortality. In words: Prevention of mortality induced by platelet aggregating factor (PAF). In kind it is in vivo, mice (CF1). The conditions noted are these: Mus musculus, Platelet; oral, PAF 0.10 mg/kg i.v.; read-out: oral ID50 (Inhibiting Dose), PAF induced mortality. Here is the method: (k) Prevention of Mortality Induced by Platelet Aggregating Factor (PAF)
Male CF1 mice weighing 20-30 gms (Carworth Farms Co.) are fed ad libitum.
Racemic 2-[[[2-(acetyloxy)-3-(octadecyloxy)propoxy]hydroxyphosphinyl]oxy]-N,N,N-trimethylethanaminium hydroxide inner salt hemihydrate (PAF) is concentrated in ethanol at a concentration of 1 mg/ml.At the time of experimentation, PAF is diluted in 0.1% BSA (bovine serum albumin) and administered intravenously at a dose of 0.10 mg/kg one hour after 10 mice are dosed with either vehicle (BSA) or drug. Mortality in mice treated with PAF occurs within 30 minutes after i.v. administration.

On to `CC(C)c1ccc2nc3ccc(C(=O)NCCCCCCn4ccnc4)cn3c(=O)c2c1` [Example 31, 2-(1-methylethyl)-N-[6-(1H-imidazol-1-yl)hexyl]-11-oxo-11H-pyrido[2,1-b]quinazoline-8-carboxamide], for which the ED50 was 17 mg/kg.
